Results from PMC3425516 (PLoS ONE, 2012).

How the values were obtained:
HCT116 cells [1] = assay: Western blot caspase 3 and PARP; assay type: cell-based, human; conditions: 24 h
Description: For total lysate, cells were lysed with the 120 µL ice-cold lysis buffer [10 mmol/L Tris-HCl (pH 7.4), 150 mmol/L NaCl, 1 mmol/L EGTA, 1 mmol/L phenylmethylsulfonyl fluoride, 10 µg/mL aprotinin, 10 µg/mL leupeptin, 1 mM sodium orthovandate, 1 mM NaF, and 1% Triton X-100]. Cell lysates were centrifuged at 13,000 rpm for 30 min. […] After 1 h incubation at room temperature in PBS/5% nonfat milk, the membrane was washed with PBS/0.1% and incubated with the indicated antibodies at 4°C overnight. After washings with PBS/0.1% Tween 20, the corresponding secondary antibodies were applied to the membranes for 1 h at room temperature. The membranes were then washed with PBS/0.1% Tween 20 and the detection of signal was done with an enhanced chemiluminescence detection kit (Amersham, Buckinghamshire, UK).

HCT116 cells [2] = assay: Sulforhodamine B cell growth assay; assay type: cell-based; conditions: Homo sapiens, HCT-116; HCT116, SRB assay, 48 h, mean±S.E.M.; read-out: GI50
Description: (§1) HCT116, MDAMB231 and NCI-ADR cells were seeded in 96-well plates in medium with 5% fetal bovine serum overnight. Cells were fixed with 10% trichloroacetic representing cell population at the time of drug treatment (T 0). […] Excess Sulforhodamine B was washed away by 1% acetic acid and dye-containing cells were lysed with 10 mmol/L Trizma base. […] By measuring time zero (T 0), control growth (C), and cell growth in the presence of the drug (Tx), the percentage growth was calculated. Percentage growth inhibition was calculated as 100-[(Tx–T 0)/(C-T 0)]×100.

MDAMB231 cells = assay: Sulforhodamine B cell growth assay; assay type: cell-based; conditions: Homo sapiens, MDA-MB-231; MDAMB231, SRB assay, 48 h
Description: as §1

NCI-ADR cells = assay: Sulforhodamine B cell growth assay; assay type: cell-based; conditions: Homo sapiens, NCI/ADR-RES, SRB assay, 48 h
Description: as §1

[3] = Body weight and adverse effects in xenograft study; assay type: in vivo, nude mice; conditions: HCT116 xenograft mice, oral daily treatment
Description: (A) Tumors were measured regularly and growth delay was calculated for treatment groups relative to control tumors (TGD). (B) Kaplan-Meier survival analysis was based on the tumor growth endpoint. (C) Inhibition of tumor growth curves represented a mean±SEM and percentage change in mean tumor volume (percent TGI). (D) Body weights were measured daily during the first week and then 2 times per week. The body weight ratio was calculated relative to the baseline measurement.
Once a tumor was palpable with the size of approximately 55 mm^3, mice were randomized into vehicle control and treatment groups (8 mice per group). Control mice received the vehicle (0.5% carboxymethyl cellulose +0.1% Tween 80). Tumors in all 3 groups were allowed to reach an endpoint volume of 1,200 mm^3.

NCI-H460 = assay: NCI-60 cell lines screening; assay type: cell-based; conditions: Homo sapiens, NCI-H460, Non-Small Cell Lung Cancer panel
Description: (§2) The NCI-60 cancer cell lines screening was conducted by the NCI’s Developmental Therapeutics Program (DTP; http://www.dtp.nci.nih.gov/branches/btb/ivclsp.html).

HL-60 (TB) = assay: NCI-60 cell lines screening; assay type: cell-based; conditions: Leukemia panel
Description: as §2

For `O=C(C=Cc1ccc2c(c1)CCN2S(=O)(=O)c1ccccc1)NO` [MPT0E028, 3-(1-benzenesulfonyl-2,3-dihydro-1H-indol-5-yl)-N-hydroxy-acrylamide], the “caspase 3 and PARP activation (western blot)” value (HCT116 cells [1]) was “induced caspase 3 and PARP activation in a concentration-dependent manner”, the GI50 (HCT116 cells [2]) was 90 ± 4 nM and the GI50 (MDAMB231 cells) was 190 ± 40 nM. The GI50 (NCI-ADR cells) was 140 ± 20 nM, the “body weight and other adverse effects” value [3] was “No significant difference in body weight or other adverse effects” and the GI50 (NCI-H460) was 144 nM. For the same molecule, the CC50 (NCI-H460; read-out: LC50 (the source's name)) was 21600 nM, the GI50 (HL-60 (TB); Homo sapiens) was 439 nM and the CC50 (HL-60 (TB); Homo sapiens, read-out: LC50 (the source's name)) was over 100000 nM. It also gave a TGI (HL-60 (TB)) of over 100000 nM.
